Results: patent US10940139B2, “Compounds that interact with the Ras superfamily for the treatment of cancers, inflammatory diseases, rasopathies, and fibrotic disease” (Shy Therapeutics LLC, priority 2017, dated 2021)

These compounds were tested on MIA-PACA2 pancreatic cancer cell lines (assay: Cell proliferation assay (CellTiter 96 AQueous One)). Conditions: Homo sapiens, MIA PaCa-2; MIA-PACA2, same assay as the % inhibition (standard conditions).
Type: cell-based

First: N#Cc1ncn(-c2nc(-c3ccccn3)nc3sc(-c4ccccc4)cc23)n1 [drawing 1595]
Second: O=C(CN1CCN(c2nc(-c3ccccn3)nc3sc(-c4ccccc4)cc23)CC1)N1CCCC1 [drawing 1606]
The IC50 of the first is lower: 501 to 1000 nM for the first, greater than 1000 nM for the second. The first is the more potent here.

Same assay, conditions: Homo sapiens, MIA PaCa-2; at 30 μM, MIA-PACA2

CCN(CC)CCC(C)Nc1nc(-c2ccccn2)nc2sccc12 (stereo not drawn) [drawing 1592] and CC(Nc1nc(-c2ccccn2)nc2scc(-c3ccccc3)c12)c1nncn1C (stereo not drawn) [drawing 1601] fall in the same range of inhibition at 30 µM: 76 to 100% for the first, 76 to 100% for the second.

First: O=C1CN(c2nc(-c3ccccn3)nc3scc(-c4ccccc4)c23)CCN1 [drawing 1593]
Second: O=C1CN(c2nc(-c3ccccn3)nc3scc(-c4ccccc4)c23)CCN1CCO [drawing 1594]
The inhibition at 30 µM of the first is lower: 1 to 25% for the first, 51 to 75% for the second.

N#Cc1ncn(-c2nc(-c3ccccn3)nc3sc(-c4ccccc4)cc23)n1 [drawing 1595] and CCCNC(=O)CN1CCN(c2nc(-c3ccccn3)nc3sc(-c4ccccc4)cc23)CC1 [drawing 1598] fall in the same range of inhibition at 30 µM: 76 to 100% for the first, 76 to 100% for the second.

Cc1nnc(C(Nc2nc(-c3ccccn3)nc3scc(-c4ccccc4)c23)c2ccccc2)n1C (stereo not drawn) [drawing 1596] and CN(Cc1cnn(C)c1)c1nc(-c2ccccn2)nc2scc(-c3ccccc3)c12 [drawing 1604] fall in the same range of inhibition at 30 µM: 76 to 100% for the first, 76 to 100% for the second.

Cc1sc2nc(-c3ccccn3)nc(NCCc3nccn3C)c2c1-c1ccccc1 [drawing 1597] and COCCNc1nc(-c2ccccn2)nc2scc(-c3ccccc3)c12 [drawing 1625] fall in the same range of inhibition at 30 µM: 76 to 100% for the first, 76 to 100% for the second.

First: c1ccc(-c2csc3nc(-c4ccccn4)nc(N4CCN(Cc5cccnc5)CC4)c23)cc1 [drawing 1602]
Second: CNC(=O)CN1CCN(c2nc(-c3ccccn3)nc3scc(-c4ccccc4)c23)CC1 [drawing 1607]
The inhibition at 30 µM of the first is higher: 76 to 100% for the first, 1 to 25% for the second.

c1ccc(-c2csc3nc(-c4ccccn4)nc(N4CCN(CC5CCCO5)CC4)c23)cc1 (stereo not drawn) [drawing 1603] and O=C(CN1CCN(c2nc(-c3ccccn3)nc3scc(-c4ccccc4)c23)CC1)NC1CC1 [drawing 1621] fall in the same range of inhibition at 30 µM: 76 to 100% for the first, 76 to 100% for the second.

O=C(CN1CCN(c2nc(-c3ccccn3)nc3sc(-c4ccccc4)cc23)CC1)N1CCCC1 [drawing 1606] and O=C(CN1CCN(c2nc(-c3ccccn3)nc3scc(-c4ccccc4)c23)CC1)N1CCCC1 [drawing 1620] fall in the same range of inhibition at 30 µM: 76 to 100% for the first, 76 to 100% for the second.

O=S1(=O)CCC(N2CCN(c3nc(-c4ccccn4)nc4scc(-c5ccccc5)c34)CC2)C1 (stereo not drawn) [drawing 1608] and OC1CCN(c2nc(-c3ccccn3)nc3scc(-c4ccccc4)c23)CC1 [drawing 1619] fall in the same range of inhibition at 30 µM: 76 to 100% for the first, 76 to 100% for the second.

Compared with CN(CC(=O)N1CCOCC1)c1nc(-c2ccccn2)nc2scc(-c3ccccc3)c12 [drawing 1609], c1ccc(-c2csc3nc(-c4ccccn4)nc(N4CCOCC4)c23)cc1 [drawing 1618] is higher in inhibition at 30 µM: 51 to 75% for the first, 76 to 100% for the second.

CON(C)c1nc(-c2ccccn2)nc2scc(-c3ccccc3)c12 [drawing 1610] and O=S1(=O)CCC(Nc2nc(-c3ccccn3)nc3scc(-c4ccccc4)c23)C1 (stereo not drawn) [drawing 1615] fall in the same range of inhibition at 30 µM: 76 to 100% for the first, 76 to 100% for the second.

O=C(CN1CCN(c2nc(-c3ccccn3)nc3scc(-c4ccccc4)c23)CC1)N1CCCCC1 [drawing 1611] and c1ccc(-c2csc3nc(-c4ccccn4)nc(N4CCN(CCN5CCCC5)CC4)c23)cc1 [drawing 1616] fall in the same range of inhibition at 30 µM: 76 to 100% for the first, 76 to 100% for the second.

O=C(CNc1nc(-c2ccccn2)nc2scc(-c3ccccc3)c12)NC1CC1 [drawing 1612] and c1ccc(-c2csc3nc(-c4ccccn4)nc(NN4CCOCC4)c23)cc1 [drawing 1623] fall in the same range of inhibition at 30 µM: 76 to 100% for the first, 76 to 100% for the second.

CCN(CC)C(=O)CN1CCN(c2nc(-c3ccccn3)nc3scc(-c4ccccc4)c23)CC1 [drawing 1613] and CC(C)CNC(=O)CN1CCN(c2nc(-c3ccccn3)nc3scc(-c4ccccc4)c23)CC1 [drawing 1614] fall in the same range of inhibition at 30 µM: 76 to 100% for the first, 76 to 100% for the second.

OC1CCCN(c2nc(-c3ccccn3)nc3scc(-c4ccccc4)c23)C1 (stereo not drawn) [drawing 1617] and NC(=O)C1CCCN(c2nc(-c3ccccn3)nc3scc(-c4ccccc4)c23)C1 (stereo not drawn) [drawing 1624] fall in the same range of inhibition at 30 µM: 76 to 100% for the first, 76 to 100% for the second.

O=C(C1CCN(c2nc(-c3ccccn3)nc3scc(-c4ccccc4)c23)CC1)N1CCCCC1 [drawing 1622] was tested, and the inhibition at 30 µM was 76 to 100%.
